One data set is described as follows: in vitro. The settings on record: for remaining at 5 min / remaining at 20 min / remaining at 40 min / remaining at 1 h: mouse, serum. The class given is in vitro ADME, mouse. The procedure:
The stability of the peptide compounds of formula (I) to proteolytic attack by proteases has been evaluated by High Performance Liquid Chromatography (HPLC).
Mouse sera were obtained by cutting a small section off tip of tail and collecting some blood drops. After collection, blood was incubated for 1 hour at 37° C. and then serum was removed from the clot by centrifugation at 1200 g for 20' at 4° C. Various amounts of peptide compounds of formula (I) were added to 50 μl of serum and the mixture was incubated at 37° C. for different periods of time. Afterwards, 2 μl of the reaction mixture were added to 50 μl of 0.1 M acetic acid in order to elute the peptide compound from serum immunoglobulins. Samples were then stored at -80° C. until use.
Analysis of samples was carried out on an Aquapore RP-8 column (30×2.1 mm I.D.), eluting the equilibrated column at a flow rate of 0.5 ml/min with a linear gradient of 0.1% trifluoracetic acid buffer containing increasing acetonitrile concentration from 5% to 60% in 35'. Elution was monitored by absorbance at 225 nm.

Data set [1] relates to MRL/Ipr mice. The data set is described as follows: Serum anti-DNA antibodies by ELISA in mouse model of Systemic Lupus Erythematosus. The class given is in vivo. The settings on record: 1 mg i.p. twice a week from 7 weeks of age. The procedure: (§1) In vivo studies on the activity of the peptide compounds of formula (I) were carried out by using an experimental animal model of human Systemic Lupus Erythematosus. MRL/Ipr, NZB/NZW or BXSB denote mouse strains that spontaneously develop an autoimmune syndrome having notable similarities to human Systemic Lupus Erythematosus. The MRL-Ipr/Ipr strain is homozigotic for Ipr gene. The lpr mutation causes functional defects in the Fas Ag. Fas belongs to the TNF receptor family and mediates apoptosis (Watanabe-Fukunaga, R. et al., "Nature", 356, 314, 1992; Itoh, N., et al., "Cell", 66, 233, 1991; Murphy, E. D., "Immunological defects in Laboratory Animals", 2, 143, 1981; Steinberg, A. D., "Semin. Immunol.", 6, 55, 1994). Autoimmune disease in MRL/Ipr mice is characterized by autoantibody production, vasculitis, arthritis, and glomerulonephritis that is the major cause of death (Theofilopoulos, A. N., et al., "Adv. Immunol.", 37, 269, 1985; Cohen, P. L., et al., "Annu. Rev. Immunol.", 9, 243, 1991).
(§2) At 7 weeks of age, mice were treated twice a week with 1 mg of D-PAM, L-PAM or placebo […] administered intraperitoneally. The treatment was stopped at 30 weeks of age. Mice were observed daily for clinical signs of disease and for mortality and were bled every 2 weeks for determination of anti-DNA antibody production, while urine protein levels were determined on samples taken twice a week.
Standard ELISA assay to measure the serum levels of anti-DNA antibodies was performed as follow. Microtiter plates (Costar, Cat. No 3590) were coated with a 10 μg/ml DNA (Sigma Cat. No D-8899) solution (100 μl/well) in 0.01 M phosphate buffer (pH 8.0) and incubated over night at 4° C. After washing the microtiter plates ten times with a 50 mM phosphate, 150 mM NaCl pH 7.2 buffer (PBS) containing 0.05% Tween (PBS-T), the wells were saturated with 200 μl of PBS-T containing fetal calf serum (1%) heat-inactivated 1 hour at 56° C. (PBS-T-FCS), and incubated for 2 hours at room temperature, to block the uncoated plastic surface. Plates were then washed again with PBS-T, and filled with samples (100 μl/well) previously diluted with PBS-T-FCS. After incubation for 2 hours at room temperature and subsequent washing, wells were filled with 100 μl of horseradish peroxidase labeled goat anti-mouse polyvalent immunoglobulins (IgG, IgA, IgM) (Sigma, Cat. No A-0412) solution diluted 1000 fold with PBS-T-FCS. The plates were then left to stand for 1 hour at room temperature, washed ten times and then filled with 150 μl of ophenylenediamine dihydrochloride (Sigma Cat. No P-6912) chromogenic substrate solution freshly prepared according to protocols from the manufacturer. The color was allowed to develop for 30' and the adsorbance at 450 nm were determined with an ELISA plate reader (Labsystems Multiskan Bichromatic).
(An ELISA detects its analyte on a solid surface through an enzyme-linked reagent.)

Data set [2] relates to MRL/Ipr mice. The data set is described as follows: Histopathologic examination of renal tissue. It counts as in vivo, mouse. The settings on record: hematoxylin and eosin, light microscope. As for the experimental part:
as §1
At 7 weeks of age, mice were treated twice a week with 1 mg of D-PAM, L-PAM or placebo […] administered intraperitoneally. […] Mice were observed daily for clinical signs of disease and for mortality and were bled every 2 weeks for determination of anti-DNA antibody production, while urine protein levels were determined on samples taken twice a week. […]

A further data set concerns Balb/c mice. The settings on record: mouse, in vivo. The procedure: The ability of the peptide compounds of formula (I) to evoke an antibody response has been evaluated by immunizing two groups of four Balb/c mice with 100 μg of D-PAM or L-PAM respectively by i.p. injection. After the first immunization, the same immunogen was administered for two subsequent boosts, blood samples were collected from each animal for monitoring antibody titers by an ELISA assay as follow.
Polystyrene microtiter plates (Falcon Cat. No 3912) were coated with a 50 μg/ml D-PAM and L-PAM conjugated to BSA (100 μl/well) in 0.1 M sodium carbonate buffer (pH 8.5) and incubated over night at 4° C. After washing the microtiter plates ten times with a 50 mM phosphate, 150 mM NaCI pH 7.2 buffer (PBS), the wells were saturated with 200 μl of PBS containing bovine serum albumin (BSA, Sigma Cat. No A-9418) for 1 hour at 37° C., to block the uncoated plastic surface. Plates were then washed again with PBS containing 0.05% Tween 20 (PBS-T), and filled with samples (100 μl/well) previously diluted with PBS-T containing 1% BSA (PBS-T-B). […] The color was allowed to develop for 30' and absorbances were read at 405 nm with an ELISA plate reader (Labsystems Multiskan Bichromatic). […]

Data set [3] concerns MRL/Ipr mice. Put plainly: Survival in mouse model of Systemic Lupus Erythematosus. The class given is in vivo. The settings on record: 1 mg i.p. twice a week from 7 weeks of age. As for the experimental part: as §1, §2
Coincident with ameliorating the clinical signs of severe immune complex nephritis, a dramatic prolongation of survival was observed.

For data set [4], the system named is MRL/Ipr mice. The data set is described as follows: Urine protein levels (dipstick) in mouse model of Systemic Lupus Erythematosus. It counts as in vivo. The note with it: for Mice with proteinuria level >1 g/L (%): 1 mg i.p. twice a week from 7 weeks of age. As for the experimental part:
as §1, §2
Urine protein levels were determined by colorimetric analysis using dipsticks (Combur 7, Boehringer Mannheim, n. cat. 185515) according to protocols from the manufacturer (Wang et al., "Proc. Natl. Acad. Sci. USA", 93, 8563-8568, 1996).

From patent publication US6303577A, “Use of a peptide compound in the treatment of systemic lupus erythematosus” (Tecnogen S.C.p.A., priority 1998, dated 2001) come the findings set out here.

Usually amount remaining stands for what is left of the initial amount, in per cent. Read a high amount remaining as greater stability.

Take `C[C@H](O)[C@@H](NC(=O)[C@H](N)CCCNC(=N)N)C(=O)N[C@H](Cc1ccc(O)cc1)C(=O)NCCCC[C@H](NC(=O)[C@@H](Cc1ccc(O)cc1)NC(=O)[C@H](NC(=O)[C@H](N)CCCNC(=N)N)[C@H](C)O)C(=O)NCCCC[C@H](NC(=O)[C@H](CCCCNC(=O)[C@@H](Cc1ccc(O)cc1)NC(=O)[C@H](NC(=O)[C@H](N)CCCNC(=N)N)[C@H](C)O)NC(=O)[C@@H](Cc1ccc(O)cc1)NC(=O)[C@H](NC(=O)[C@H](N)CCCNC(=N)N)[C@H](C)O)C(=O)NCC(=O)O` [D-PAM, (H2 N-D-Arg-D-Thr-D-Tyr-CO)4 -(Lys)2 -Lys-Gly-OH]: the “Stability to proteolytic attack (in words)” value in the data set “in vitro” is “more stable to proteolytic attack than L-PAM”. This compound gave a share remaining at 5 min in the data set “in vitro” of 83%. This compound showed a share remaining at 20 min in the data set “in vitro” of 73%. The same compound registered an amount remaining at 40 min in “in vitro” of 68%. Further, the amount remaining at 1 h in the data set “in vitro” was found to be 63%. Moreover, the “Ig Anti-DNA titer (O.D.) fold increase” value with MRL/Ipr mice [1] (time 8 weeks) worked out at 1.8 fold increase; in the data set on MRL/Ipr mice [1] (time 10 weeks), 2.5 fold increase; in the data set on MRL/Ipr mice [1] (time 14 weeks), 3.5 fold increase; in the data set on MRL/Ipr mice [1] (time 16 weeks) it was 3.5 fold increase; in the data set on MRL/Ipr mice [1] (time 18 weeks), 4.3 fold increase. Moreover, the “Glomerulonephropathic progression versus positive control group (in words)” value in the data set with MRL/Ipr mice [2] is listed as “evident reduction in the glomerulonephropathic progression”. The “Antibody titer (A 405)” value in the data set with Balb/c mice came to 0.663 A 405. Moreover, the “Survival rate (%)” value in the data set with MRL/Ipr mice [3] (time 15 weeks) is listed as 100%; in the data set with MRL/Ipr mice [3] (time 20 weeks), 100%; with MRL/Ipr mice [3] (time 25 weeks), 90%; in the data set on MRL/Ipr mice [3] (time 30 weeks), 80%. The “Onset of severe proteinuria versus untreated animals (in words)” value with MRL/Ipr mice [4] (1 mg i.p. twice a week) was “marked delay in the onset of severe proteinuria”. The “Time until which treated mice did not develop proteinuria” value with MRL/Ipr mice [4] (1 mg i.p. twice a week) was 20 weeks. Besides, the “Mice with proteinuria level >1 g/L (%)” value in the data set with MRL/Ipr mice [4] (time 8 weeks) came to 0%; in the data set with MRL/Ipr mice [4] (time 13 weeks), 0%; in the data set on MRL/Ipr mice [4] (time 18 weeks) it was 0%; in the data set with MRL/Ipr mice [4] (time 23 weeks), 20%; with MRL/Ipr mice [4] (time 28 weeks), 30%.

`C[C@@H](O)[C@H](NC(=O)[C@@H](N)CCCNC(=N)N)C(=O)N[C@@H](Cc1ccc(O)cc1)C(=O)NCCCC[C@H](NC(=O)[C@H](Cc1ccc(O)cc1)NC(=O)[C@@H](NC(=O)[C@@H](N)CCCNC(=N)N)[C@@H](C)O)C(=O)NCCCC[C@H](NC(=O)[C@H](CCCCNC(=O)[C@H](Cc1ccc(O)cc1)NC(=O)[C@@H](NC(=O)[C@@H](N)CCCNC(=N)N)[C@@H](C)O)NC(=O)[C@H](Cc1ccc(O)cc1)NC(=O)[C@@H](NC(=O)[C@@H](N)CCCNC(=N)N)[C@@H](C)O)C(=O)NCC(=O)O` [L-PAM, (H2 N-L-Arg-L-Thr-L-Tyr-CO)4 -(Lys)2 -Lys-Gly-OH] gave an amount remaining at 5 min in the data set “in vitro” of 57%. Moreover, the amount remaining at 20 min in “in vitro” was determined as 31%. Moreover, the fraction remaining at 40 min in “in vitro” stood at 19%. The fraction remaining at 1 h in “in vitro” was found to be 12%. The “Ig Anti-DNA titer (O.D.) fold increase” value in the data set with MRL/Ipr mice [1] (time 8 weeks) worked out at 1.8 fold increase; with MRL/Ipr mice [1] (time 10 weeks), 2.5 fold increase; in the data set with MRL/Ipr mice [1] (time 14 weeks), 3.6 fold increase; in the data set with MRL/Ipr mice [1] (time 16 weeks), 3.6 fold increase; in the data set on MRL/Ipr mice [1] (time 18 weeks), 4.5 fold increase. Besides, in the data set on MRL/Ipr mice [2], the “Glomerulonephropathic progression versus positive control group (in words)” value was “evident reduction in the glomerulonephropathic progression”. Moreover, the “Antibody titer (A 405)” value in the data set on Balb/c mice was found to be 0.462 A 405. Also, the “Survival rate (%)” value in the data set on MRL/Ipr mice [3] (time 15 weeks) is 100%; in the data set with MRL/Ipr mice [3] (time 20 weeks), 90%; in the data set on MRL/Ipr mice [3] (time 25 weeks) it was 50%; with MRL/Ipr mice [3] (time 30 weeks) it was 40%. Besides, the “Onset of severe proteinuria versus untreated animals (in words)” value in the data set with MRL/Ipr mice [4] (1 mg i.p. twice a week) was “marked delay in the onset of severe proteinuria”. The “Mice with proteinuria level >1 g/L (%)” value in the data set with MRL/Ipr mice [4] (time 8 weeks) was determined as 0%; with MRL/Ipr mice [4] (time 13 weeks), 0%; in the data set with MRL/Ipr mice [4] (time 18 weeks) it was 10%; with MRL/Ipr mice [4] (time 23 weeks), 50%; in the data set on MRL/Ipr mice [4] (time 28 weeks) it was 60%.
